This data set concerns the target human serum albumin (HSA) (Homo sapiens, UniProt P02768). The data set can be described thus: Albumin binding affinity, competition scintillation proximity assay.

Starred links: 1 amine or outer side, 2 acyl side, 3 side chain; linkers in the order of their positions; H or OH if unused. Non-standard residues stand in square brackets, D forms with d. Residues, ends and D or L forms follow the SMILES beside them. Groups on a side chain read outwards from the residue. *: point of attachment. C20 diacid = O=C(O)CCCCCCCCCCCCCCCCCCC(=O)*; C18 diacid = O=C(O)CCCCCCCCCCCCCCCCC(=O)*; d(βAsp) = O=C(O)[C@@H](CC(=O)[*:2])N[*:1]; γGlu = O=C(O)[C@H](CCC(=O)[*:2])N[*:1]; Desaminohistidyl = O=C(CCc1c[nH]cn1)*; AEEA = NCCOCCOCC(=O)O; Aib = CC(C)(N)C(=O)O; Inp = O=C(O)C1CCNCC1; Bn = c1ccc(C*)cc1

Sequence of human serum albumin (HSA) (P02768 25-609): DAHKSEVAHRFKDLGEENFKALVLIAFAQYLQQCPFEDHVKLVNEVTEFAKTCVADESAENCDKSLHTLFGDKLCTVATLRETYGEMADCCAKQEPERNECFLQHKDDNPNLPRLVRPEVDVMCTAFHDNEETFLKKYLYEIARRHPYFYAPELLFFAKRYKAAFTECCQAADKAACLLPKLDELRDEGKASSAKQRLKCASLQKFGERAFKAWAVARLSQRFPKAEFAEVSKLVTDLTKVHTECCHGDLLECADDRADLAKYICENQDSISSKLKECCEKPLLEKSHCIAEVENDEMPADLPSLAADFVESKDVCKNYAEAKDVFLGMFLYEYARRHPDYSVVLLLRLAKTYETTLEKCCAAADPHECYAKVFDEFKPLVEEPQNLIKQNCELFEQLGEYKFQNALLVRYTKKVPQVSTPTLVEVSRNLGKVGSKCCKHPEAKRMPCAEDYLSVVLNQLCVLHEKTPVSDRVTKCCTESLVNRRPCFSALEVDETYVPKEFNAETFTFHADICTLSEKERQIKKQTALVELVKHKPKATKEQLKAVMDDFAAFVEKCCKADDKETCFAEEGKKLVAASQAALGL
Procedure: Streptavidin-SPA beads (GE Healthcare RPNQ0009) were incubated with biotinylated HSA for 5 hours. The beads were washed with buffer to remove unbound HSA. […] After 20 hours of gentle rocking at room temperature the plates were centrifuged and counted on a TopCounter.

Compound `CC[C@H](C)[C@H](NC(=O)[C@H](Cc1ccccc1)NC(=O)[C@H](CCC(=O)O)NC(=O)[C@H](CCCNC(=N)N)NC(=O)[C@H](C)NC(=O)[C@H](C)NC(=O)[C@H](CCC(N)=O)NC(=O)[C@H](CCC(=O)O)NC(=O)[C@H](CCC(=O)O)NC(=O)[C@H](CC(C)C)NC(=O)[C@H](Cc1ccc(O)cc1)NC(=O)[C@H](CO)NC(=O)[C@H](CO)NC(=O)[C@@H](NC(=O)[C@H](CC(=O)O)NC(=O)[C@H](CO)NC(=O)[C@@H](NC(=O)[C@H](Cc1ccccc1)NC(=O)[C@@H](NC(=O)CNC(=O)[C@H](CCC(=O)O)NC(=O)[C@H](C)NC(=O)CCc1c[nH]cn1)[C@@H](C)O)[C@@H](C)O)C(C)C)C(=O)N[C@@H](C)C(=O)N[C@@H](Cc1c[nH]c2ccccc12)C(=O)N[C@@H](CC(C)C)C(=O)N[C@H](C(=O)N[C@@H](CCCNC(=N)N)C(=O)NCC(=O)N[C@@H](CCCNC(=N)N)C(=O)N[C@@H](CCCCNC(=O)COCCOCCNC(=O)COCCOCCNC(=O)C[C@@H](NC(=O)C1CCN(C(=O)CCCCCCCCCCCCCCCCCCC(=O)O)CC1)C(=O)O)C(N)=O)C(C)C` [Example 1, N-ε^37{2-[2-(2-{2-[2-((R)-3-carboxy-3-{[1-(19-carboxynonadecanoyl)piperidine-4-carbonyl]amino}propionylamino)ethoxy]ethoxy}acetylamino)ethoxy]ethoxy}acetyl [desaminoHis^7,Glu^22,Arg^26,Arg^34,Lys^37]GLP-1(7-37)amide] showed a concentration for a half-maximal effect (EC50) of 300 to 800 nM.
Consider `CC[C@H](C)[C@H](NC(=O)[C@H](Cc1ccccc1)NC(=O)[C@H](CC(C)C)NC(=O)[C@H](CCCCNC(=O)COCCOCCNC(=O)COCCOCCNC(=O)C[C@@H](NC(=O)C1CCN(C(=O)CCCCCCCCCCCCCCCCCCC(=O)O)CC1)C(=O)O)NC(=O)[C@@H](NC(=O)[C@H](C)NC(=O)[C@H](CCC(=O)O)NC(=O)[C@H](CCC(=O)O)NC(=O)[C@H](CCC(=O)O)NC(=O)[C@H](CC(C)C)NC(=O)[C@H](CCC(N)=O)NC(=O)[C@H](CCCCN)NC(=O)[C@H](CO)NC(=O)[C@H](CC(C)C)NC(=O)[C@H](CC(=O)O)NC(=O)[C@H](CO)NC(=O)[C@@H](NC(=O)[C@H](Cc1ccccc1)NC(=O)[C@@H](NC(=O)CNC(=O)[C@H](CCC(=O)O)NC(=O)C(C)(C)NC(=O)[C@@H](N)Cc1c[nH]cn1)[C@@H](C)O)[C@@H](C)O)C(C)C)C(=O)N[C@@H](CCC(=O)O)C(=O)N[C@@H](Cc1c[nH]c2ccccc12)C(=O)N[C@@H](CC(C)C)C(=O)N[C@@H](CCCCN)C(=O)N[C@@H](CCC(N)=O)C(=O)NCC(=O)NCC(=O)N1CCC[C@H]1C(=O)N[C@@H](CO)C(=O)N[C@@H](CO)C(=O)NCC(=O)N[C@@H](C)C(=O)N1CCC[C@H]1C(=O)N1CCC[C@H]1C(=O)N1CCC[C@H]1C(=O)N[C@@H](COCc1ccccc1)C(N)=O` [Example 2, N-ε^20-{2-[2-(2-{2-[2-((R)-3-carboxy-3-{[1-(19-carboxynonadecanoyl)piperidine-4-carbonyl]amino}propionylamino)ethoxy]ethoxy}acetylamino)ethoxy]ethoxy}acetyl [Aib^2,Leu^14,Lys^20,Gln^28,Ser(O-benzyl)^39] exendin-4 (1-39)amide] (H-H[Aib]EGTFTSDLSKQLEEEAVK([AEEA-AEEA-d(βAsp)-Inp-C20 diacid])LFIEWLKQGGPSSGAPPPS(Bn)-NH2), for which the half-maximal effective concentration (EC50) lay in the range of 300 to 800 nM.
The same measure, in the same setting: in the case of `CC[C@H](C)[C@H](NC(=O)[C@H](Cc1ccccc1)NC(=O)[C@H](CCC(=O)O)NC(=O)[C@H](CCCNC(=N)N)NC(=O)[C@H](C)NC(=O)[C@H](C)NC(=O)[C@H](CCC(N)=O)NC(=O)[C@H](CCC(=O)O)NC(=O)[C@H](CCC(=O)O)NC(=O)[C@H](CC(C)C)NC(=O)[C@H](Cc1ccc(O)cc1)NC(=O)[C@H](CO)NC(=O)[C@H](CO)NC(=O)[C@@H](NC(=O)[C@H](CC(=O)O)NC(=O)[C@H](CO)NC(=O)[C@@H](NC(=O)[C@H](Cc1ccccc1)NC(=O)[C@@H](NC(=O)CNC(=O)[C@H](CCC(=O)O)NC(=O)C(C)(C)NC(=O)[C@@H](N)Cc1c[nH]cn1)[C@@H](C)O)[C@@H](C)O)C(C)C)C(=O)N[C@@H](C)C(=O)N[C@@H](Cc1c[nH]c2ccccc12)C(=O)N[C@@H](CC(C)C)C(=O)N[C@H](C(=O)N[C@@H](CCCNC(=N)N)C(=O)NCC(=O)N[C@@H](CCCNC(=N)N)C(=O)N[C@@H](CCCCNC(=O)COCCOCCNC(=O)COCCOCCNC(=O)C[C@H](NC(=O)C1CCN(C(=O)CCCCCCCCCCCCCCCCCCC(=O)O)CC1)C(=O)O)C(N)=O)C(C)C` [Example 4, N-epsilon37{2-[2-(2-{2-[2-((S)-3-carboxy-3-{[1-(19-carboxynonadecanoyl)piperidine-4-carbonyl]amino}propionylamino)ethoxy]ethoxy}acetylamino)ethoxy]ethoxy}acetyl [Aib8,Glu22,Arg26,Arg34,Lys37]GLP-1-(7-37)amide] it was 300 to 800 nM; in that of `CC[C@H](C)[C@H](NC(=O)[C@H](Cc1ccccc1)NC(=O)[C@H](CCC(=O)O)NC(=O)[C@H](CCCNC(=N)N)NC(=O)[C@H](C)NC(=O)[C@H](C)NC(=O)[C@H](CCCCNC(=O)COCCOCCNC(=O)COCCOCCNC(=O)C[C@@H](NC(=O)C1CCN(C(=O)CCCCCCCCCCCCCCCCC(=O)O)CC1)C(=O)O)NC(=O)CNC(=O)[C@H](CCC(=O)O)NC(=O)[C@H](CC(C)C)NC(=O)[C@H](Cc1ccc(O)cc1)NC(=O)[C@H](CO)NC(=O)[C@H](CO)NC(=O)[C@@H](NC(=O)[C@H](CC(=O)O)NC(=O)[C@H](CO)NC(=O)[C@@H](NC(=O)[C@H](Cc1ccccc1)NC(=O)[C@@H](NC(=O)CNC(=O)[C@H](CCC(=O)O)NC(=O)C(C)(C)NC(=O)[C@@H](N)Cc1c[nH]cn1)[C@@H](C)O)[C@@H](C)O)C(C)C)C(=O)N[C@@H](C)C(=O)N[C@@H](Cc1c[nH]c2ccccc12)C(=O)N[C@@H](CC(C)C)C(=O)N[C@H](C(=O)N[C@@H](CCCNC(=N)N)C(=O)NCC(=O)N[C@@H](CCCNC(=N)N)C(=O)NCC(=O)O)C(C)C` [Example 5] (H-H[Aib]EGTFTSDVSSYLEGK([AEEA-AEEA-d(βAsp)-Inp-C18 diacid])AAREFIAWLVRGRG-OH), 300 to 800 nM.
Compound `CC[C@H](C)[C@H](NC(=O)[C@H](Cc1cccc(C(F)(F)F)c1)NC(=O)[C@H](CCC(=O)O)NC(=O)[C@H](CCCNC(=N)N)NC(=O)[C@H](C)NC(=O)[C@H](C)NC(=O)[C@H](CCC(N)=O)NC(=O)[C@H](CCC(=O)O)NC(=O)[C@H](CCC(=O)O)NC(=O)[C@H](CC(C)C)NC(=O)[C@H](Cc1ccc(O)cc1)NC(=O)[C@H](CO)NC(=O)[C@H](CO)NC(=O)[C@@H](NC(=O)[C@H](CC(=O)O)NC(=O)[C@H](CO)NC(=O)[C@@H](NC(=O)[C@H](Cc1ccccc1)NC(=O)[C@@H](NC(=O)CNC(=O)[C@H](CCC(=O)O)NC(=O)[C@H](C)NC(=O)CCc1c[nH]cn1)[C@@H](C)O)[C@@H](C)O)C(C)C)C(=O)N[C@@H](C)C(=O)N[C@@H](Cc1c[nH]c2ccccc12)C(=O)N[C@@H](CC(C)C)C(=O)N[C@H](C(=O)N[C@@H](CCCNC(=N)N)C(=O)NCC(=O)N[C@@H](CCCNC(=N)N)C(=O)N[C@@H](CCCCNC(=O)COCCOCCNC(=O)COCCOCCNC(=O)C[C@@H](NC(=O)C1CCN(C(=O)CCCCCCCCCCCCCCCCC(=O)O)CC1)C(=O)O)C(N)=O)C(C)C` [Example 6, N-epsilon37-[2-(2-[2-(2-[2-(2-((R)-3-[1-(17-Carboxyheptadecanoyl)piperidin-4-ylcarbonylamino]3-carboxypropionylamino)ethoxy)ethoxy]acetylamino)ethoxy]ethoxy)acetyl][DesaminoHis7, Glu22 Arg26, Arg 34, Phe(m-CF3)28]GLP-1-(7-37)amide] yielded an EC50 at 20 h (human, biotinylated human serum albumin on streptavidin-SPA beads, pH 7.4) of 800 to 2000 nM.
For the compound `CC[C@H](C)[C@H](NC(=O)[C@H](Cc1ccccc1)NC(=O)[C@H](CCC(=O)O)NC(=O)[C@H](CCCNC(=N)N)NC(=O)[C@H](C)NC(=O)[C@H](C)NC(=O)[C@H](CCC(N)=O)NC(=O)[C@H](CCC(=O)O)NC(=O)[C@H](CCC(=O)O)NC(=O)[C@H](CC(C)C)NC(=O)[C@H](Cc1ccc(O)cc1)NC(=O)[C@H](CO)NC(=O)[C@H](CO)NC(=O)[C@@H](NC(=O)[C@H](CC(=O)O)NC(=O)[C@H](CO)NC(=O)[C@@H](NC(=O)[C@H](Cc1ccccc1)NC(=O)[C@@H](NC(=O)CNC(=O)[C@H](CCC(=O)O)NC(=O)[C@H](C)NC(=O)CCc1c[nH]cn1)[C@@H](C)O)[C@@H](C)O)C(C)C)C(=O)N[C@@H](C)C(=O)N[C@@H](Cc1c[nH]c2ccccc12)C(=O)N[C@@H](CC(C)C)C(=O)N[C@H](C(=O)N[C@@H](CCCNC(=N)N)C(=O)NCC(=O)N[C@@H](CCCNC(=N)N)C(=O)NCC(=O)N[C@@H](CCCCNC(=O)COCCOCCNC(=O)COCCOCCNC(=O)CC[C@H](NC(=O)C1CCN(C(=O)CCCCCCCCCCCCCCCCCCC(=O)O)CC1)C(=O)O)C(=O)O)C(C)C` [Example 7, [DesaminoHis7,Glu22,Arg26,Arg34]GLP-1-(7-37)-Lys(2-{2-[2-(2-{2-[2-((S)-4-Carboxy-4-{[1-(19-carboxynonadecanoyl)piperidine-4-carbonyl]amino}butyrylamino)ethoxy]ethoxy}acetylamino)ethoxy]ethoxy}acetyl)] (Desaminohistidyl-AEGTFTSDVSSYLEEQAAREFIAWLVRGRGK([AEEA-AEEA-γGlu-Inp-C20 diacid])-OH), the EC50 lay within 300 to 800 nM.

Source of the values: patent US9067977B2, “Peptides derivatized with A-B-C-D- and their therapeutical use” (Novo Nordisk A/S, priority 2007, dated 2015).
